From patent US4725683A, “Fluorophenoxyphenoxypropionates and derivatives thereof” (The Dow Chemical Company, priority 1985, dated 1988)

Columns and labels:
Test in all cases: Selective postemergence, track sprayer
Type in all cases: in vivo
Bermudagrass = system: Bermudagrass
Summary of the method: (§1)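 Read-out: visual injury at 2 weeks, 0 = no effect, 100 = complete kill. Plants ~10 cm tall in pots; track sprayer application in 280.6 L/ha water + 0.1% Tween-20; blank-sprayed controls.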

Wheat = system: Wheat
Summary of the method: as §1

Cheatgrass = system: Cheatgrass
Summary of the method: as §1

Crabgrass = system: Crabgrass
Summary of the method: as §1

Barnyardgrass = system: Barnyardgrass
Summary of the method: as §1

Canarygrass = system: Canarygrass
Summary of the method: as §1

Annual Rye = system: Annual Rye
Summary of the method: as §1

Downey Brome = system: Downey Brome
Summary of the method: as §1

Giant Foxtail = system: Giant Foxtail
Summary of the method: as §1

Wild Oats = system: Wild Oats
Summary of the method: as §1

Wild Proso Millet = system: Wild Proso Millet
Summary of the method: as §1

Johnsongrass = system: Johnsongrass
Summary of the method: as §1

COC(=O)C(C)Oc1ccc(Oc2ccc(Br)cc2F)cc1 (racemic) [Example 4-Bromo-, 2-[4-(4-bromo-2-fluorophenoxy)phenoxy]propionic acid methyl ester]
Percent Control (Bermudagrass; 0.0011 kgs/hectare): 0% | Percent Control (Bermudagrass; 0.0023 kgs/hectare): 0% | Percent Control (Bermudagrass; 0.0045 kgs/hectare): 0% | Percent Control (Bermudagrass; 0.009 kgs/hectare): 20% | Percent Control (Bermudagrass; 0.035 kgs/hectare): 90% | Percent Control (Bermudagrass; 0.07 kgs/hectare): 95% | Percent Control (Bermudagrass; 0.14 kgs/hectare): 90% | Percent Control (Bermudagrass; 0.28 kgs/hectare): 100% | Percent Control (Bermudagrass; 0.56 kgs/hectare): 100% | Percent Control (Wheat; 0.0011 kgs/hectare): 0% | Percent Control (Wheat; 0.0023 kgs/hectare): 0% | Percent Control (Wheat; 0.0045 kgs/hectare): 0% | Percent Control (Wheat; 0.009 kgs/hectare): 0% | Percent Control (Wheat; 0.018 kgs/hectare): 0% | Percent Control (Wheat; 0.035 kgs/hectare): 0% | Percent Control (Wheat; 0.07 kgs/hectare): 0% | Percent Control (Wheat; 0.14 kgs/hectare): 10% | Percent Control (Wheat; 0.28 kgs/hectare): 40% | Percent Control (Wheat; 0.56 kgs/hectare): 50% | Percent Control (Cheatgrass; 0.0011 kgs/hectare): 0% | Percent Control (Cheatgrass; 0.0023 kgs/hectare): 0% | Percent Control (Cheatgrass; 0.0045 kgs/hectare): 0% | Percent Control (Cheatgrass; 0.009 kgs/hectare): 0% | Percent Control (Cheatgrass; 0.018 kgs/hectare): 0% | Percent Control (Cheatgrass; 0.035 kgs/hectare): 0% | Percent Control (Cheatgrass; 0.07 kgs/hectare): 0% | Percent Control (Cheatgrass; 0.14 kgs/hectare): 0% | Percent Control (Cheatgrass; 0.28 kgs/hectare): 0% | Percent Control (Cheatgrass; 0.56 kgs/hectare): 20% | Percent Control (Crabgrass; 0.0011 kgs/hectare): 0% | Percent Control (Crabgrass; 0.0023 kgs/hectare): 0% | Percent Control (Crabgrass; 0.0045 kgs/hectare): 50% | Percent Control (Crabgrass; 0.009 kgs/hectare): 50% | Percent Control (Crabgrass; 0.035 kgs/hectare): 100% | Percent Control (Crabgrass; 0.07 kgs/hectare): 100% | Percent Control (Crabgrass; 0.14 kgs/hectare): 100% | Percent Control (Crabgrass; 0.28 kgs/hectare): 100% | Percent Control (Crabgrass; 0.56 kgs/hectare): 100% | Percent Control (Barnyardgrass; 0.0011 kgs/hectare): 40% | Percent Control (Barnyardgrass; 0.0023 kgs/hectare): 70% | Percent Control (Barnyardgrass; 0.0045 kgs/hectare): 100% | Percent Control (Barnyardgrass; 0.009 kgs/hectare): 100% | Percent Control (Barnyardgrass; 0.035 kgs/hectare): 100% | Percent Control (Barnyardgrass; 0.07 kgs/hectare): 100% | Percent Control (Barnyardgrass; 0.14 kgs/hectare): 100% | Percent Control (Barnyardgrass; 0.28 kgs/hectare): 100% | Percent Control (Barnyardgrass; 0.56 kgs/hectare): 100% | Percent Control (Canarygrass; 0.0011 kgs/hectare): 0% | Percent Control (Canarygrass; 0.0023 kgs/hectare): 0% | Percent Control (Canarygrass; 0.0045 kgs/hectare): 0% | Percent Control (Canarygrass; 0.009 kgs/hectare): 0% | Percent Control (Canarygrass; 0.035 kgs/hectare): 50% | Percent Control (Canarygrass; 0.07 kgs/hectare): 100% | Percent Control (Canarygrass; 0.14 kgs/hectare): 100% | Percent Control (Canarygrass; 0.28 kgs/hectare): 100% | Percent Control (Canarygrass; 0.56 kgs/hectare): 100% | Percent Control (Annual Rye; 0.0011 kgs/hectare): 0% | Percent Control (Annual Rye; 0.0023 kgs/hectare): 0% | Percent Control (Annual Rye; 0.0045 kgs/hectare): 0% | Percent Control (Annual Rye; 0.009 kgs/hectare): 20% | Percent Control (Annual Rye; 0.035 kgs/hectare): 40% | Percent Control (Annual Rye; 0.07 kgs/hectare): 100% | Percent Control (Annual Rye; 0.14 kgs/hectare): 100% | Percent Control (Annual Rye; 0.28 kgs/hectare): 100% | Percent Control (Annual Rye; 0.56 kgs/hectare): 100% | Percent Control (Downey Brome; 0.0011 kgs/hectare): 0% | Percent Control (Downey Brome; 0.0023 kgs/hectare): 0% | Percent Control (Downey Brome; 0.0045 kgs/hectare): 0% | Percent Control (Downey Brome; 0.009 kgs/hectare): 0% | Percent Control (Downey Brome; 0.018 kgs/hectare): 0% | Percent Control (Downey Brome; 0.035 kgs/hectare): 0% | Percent Control (Downey Brome; 0.07 kgs/hectare): 0% | Percent Control (Downey Brome; 0.14 kgs/hectare): 0% | Percent Control (Downey Brome; 0.28 kgs/hectare): 0% | Percent Control (Downey Brome; 0.56 kgs/hectare): 0% | Percent Control (Giant Foxtail; 0.0011 kgs/hectare): 100% | Percent Control (Giant Foxtail; 0.0023 kgs/hectare): 100% | Percent Control (Giant Foxtail; 0.0045 kgs/hectare): 100% | Percent Control (Giant Foxtail; 0.009 kgs/hectare): 100% | Percent Control (Giant Foxtail; 0.035 kgs/hectare): 100% | Percent Control (Giant Foxtail; 0.14 kgs/hectare): 100% | Percent Control (Giant Foxtail; 0.28 kgs/hectare): 100% | Percent Control (Giant Foxtail; 0.56 kgs/hectare): 100% | Percent Control (Wild Oats; 0.0011 kgs/hectare): 0% | Percent Control (Wild Oats; 0.0023 kgs/hectare): 0% | Percent Control (Wild Oats; 0.0045 kgs/hectare): 0% | Percent Control (Wild Oats; 0.009 kgs/hectare): 0% | Percent Control (Wild Oats; 0.035 kgs/hectare): 40% | Percent Control (Wild Oats; 0.07 kgs/hectare): 40% | Percent Control (Wild Oats; 0.14 kgs/hectare): 70% | Percent Control (Wild Oats; 0.28 kgs/hectare): 90% | Percent Control (Wild Oats; 0.56 kgs/hectare): 100% | Percent Control (Wild Proso Millet; 0.0011 kgs/hectare): 20% | Percent Control (Wild Proso Millet; 0.0023 kgs/hectare): 20% | Percent Control (Wild Proso Millet; 0.0045 kgs/hectare): 70% | Percent Control (Wild Proso Millet; 0.009 kgs/hectare): 80% | Percent Control (Wild Proso Millet; 0.035 kgs/hectare): 100% | Percent Control (Wild Proso Millet; 0.07 kgs/hectare): 100% | Percent Control (Wild Proso Millet; 0.14 kgs/hectare): 100% | Percent Control (Wild Proso Millet; 0.28 kgs/hectare): 100% | Percent Control (Wild Proso Millet; 0.56 kgs/hectare): 100% | Percent Control (Johnsongrass; 0.0011 kgs/hectare): 0% | Percent Control (Johnsongrass; 0.0023 kgs/hectare): 0% | Percent Control (Johnsongrass; 0.0045 kgs/hectare): 0% | Percent Control (Johnsongrass; 0.009 kgs/hectare): 0% | Percent Control (Johnsongrass; 0.035 kgs/hectare): 0% | Percent Control (Johnsongrass; 0.07 kgs/hectare): 0% | Percent Control (Johnsongrass; 0.14 kgs/hectare): 20% | Percent Control (Johnsongrass; 0.28 kgs/hectare): 30% | Percent Control (Johnsongrass; 0.56 kgs/hectare): 80%
